Test results published in patent US11279687B2, “Compounds and compositions for the inhibition of NAMPT” (Valo Health, Inc., priority 2010, dated 2022).

Assays:
NAMPT = NAMPT (Homo sapiens (Human), UniProt P43490); experiment: NAMPT biochemical inhibition assay (NMN quantified by mass spectrometry); conditions: NAMPT biochemical inhibition; read-out: Biochem IC50
A2780 cells = experiment: In-vitro cell proliferation assay (SRB), A2780 cells; type: cell-based; conditions: Homo sapiens, A2780, 72 h, A2780 cells, 72 hours, SRB; read-out: A2780 IC50;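 also: viable cell number read as SRB absorbance, background from media-only wells subtracted, IC50 interpolated from percent inhibition at two bracketing compound concentrations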

NAMPT, sequence (P43490 whole entry): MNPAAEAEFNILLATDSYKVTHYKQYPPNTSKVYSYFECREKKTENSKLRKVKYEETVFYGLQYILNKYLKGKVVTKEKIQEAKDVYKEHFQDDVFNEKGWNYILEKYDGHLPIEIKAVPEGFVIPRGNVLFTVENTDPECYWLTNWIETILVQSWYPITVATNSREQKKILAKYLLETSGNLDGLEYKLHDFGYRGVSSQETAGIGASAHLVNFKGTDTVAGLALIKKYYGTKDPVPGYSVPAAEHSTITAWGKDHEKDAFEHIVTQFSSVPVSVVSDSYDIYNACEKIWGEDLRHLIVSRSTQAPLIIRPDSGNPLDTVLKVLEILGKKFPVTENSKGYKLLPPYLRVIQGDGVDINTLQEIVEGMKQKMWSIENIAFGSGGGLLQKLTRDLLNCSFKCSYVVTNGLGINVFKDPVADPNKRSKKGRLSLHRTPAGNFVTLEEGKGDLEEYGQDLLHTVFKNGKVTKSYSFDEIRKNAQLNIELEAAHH

| IC50 (NAMPT) [nM] | IC50 (A2780 cells) [nM] | Compound |
| --- | --- | --- |
| 5 | 101 | Cc1ccc(C)c(N2CCN(S(=O)(=O)c3ccc(NC(=O)NCc4cccnc4)cc3)CC2)c1 [3-{4-[4-(2,5-dimethylphenyl)piperazine-1-sulfonyl]phenyl}-1-(pyridin-3-ylmethyl)urea] |
| 3.3 | 79.3 | CN(C)S(=O)(=O)c1cccc(S(=O)(=O)c2ccc(NC(=O)NCc3cccnc3)cc2)c1 [3-(4-{[3-(dimethylsulfamoyl)benzene]sulfonyl]phenyl)-1-(pyridin-3-ylmethyl)urea] |
| 5 | 22 | O=C(NCc1cccnc1)Nc1ccc(S(=O)(=O)Nc2cc(C(F)(F)F)ccc2N2CCCCC2)cc1 [3-(4-{[2-(piperidin-1-yl)-5-(trifluoromethyl)phenyl]sulfamoyl}phenyl)-1-(pyridin-3-ylmethyl)urea] |
| 2 | 6 | CCOc1ccccc1N1CCN(S(=O)(=O)c2ccc(NC(=O)NCc3cccnc3)cc2)CC1 [3-{4-[4-(2-ethoxyphenyl)piperazine-1-sulfonyl]phenyl]-1-(pyridin-3-ylmethyl)urea] |
| 3 | 41 | O=C(NCc1cccnc1)Nc1ccc(S(=O)(=O)Nc2ccccc2Cl)cc1 [3-{4-[(2-chlorophenyl)sulfamoyl]phenyl}-1-(pyridin-3-ylmethyl)urea] |
| 1.5 | 39.5 | CC(=O)Nc1cccc(S(=O)(=O)c2ccc(NC(=O)NCc3cccnc3)cc2)c1 [N-{3-[(4-{[(pyridin-3-ylmethyl)carbamoyl]amino}benzene)sulfonyl]phenyl}acetamide] |
| 1.5 | 13.3 | CN(C)C(=O)c1cc(F)cc(S(=O)(=O)c2ccc(NC(=O)NCc3cccnc3)cc2)c1 [3-fluoro-N,N-dimethyl-5-[(4-{[(pyridin-3-ylmethyl)carbamoyl]amino}benzene)sulfonyl]benzamide] |
| 4 | 181 | O=C(NCc1cccnc1)Nc1ccc(S(=O)(=O)NCC2CCCCC2)cc1 [1-{4-[(cyclohexylmethyl)sulfamoyl]phenyl}-3-(pyridin-3-ylmethyl)urea] |
| 2.2 | 100 to 1000 | CCOc1ccc(S(=O)(=O)c2ccc(NC(=O)NCc3cccnc3)cc2)cc1 [3-{4-[(4-ethoxybenzene)sulfonyl]phenyl}-1-(pyridin-3-ylmethyl)urea] |
| 5 | 39 | CC(C)(NS(=O)(=O)c1ccc(NC(=O)NCc2cccnc2)cc1)c1ccccc1 [3-{4-[(2-phenylpropan-2-yl)sulfamoyl]phenyl}-1-(pyridin-3-ylmethyl)urea] |
| 3 | 533 | CCc1ccc(S(=O)(=O)c2ccc(NC(=O)NCc3cccnc3)cc2)cc1 [3-{4-[(4-ethylbenzene)sulfonyl]phenyl}-1-(pyridin-3-ylmethyl)urea] |
| 1 | 344 | O=C(NCc1cccnc1)Nc1ccc(S(=O)(=O)c2ccc(F)cc2F)cc1 [3-{4-[(2,4-difluorobenzene)sulfonyl]phenyl}-1-(pyridin-3-ylmethyl)urea] |
| 3 | 221 | O=C(NCc1cccnc1)Nc1ccc(S(=O)(=O)c2ccc(Cl)c(F)c2)cc1 [3-{4-[(4-chloro-3-fluorobenzene)sulfonyl]phenyl}-1-(pyridin-3-ylmethyl)urea] |
| 8.7 | 100 to 1000 | O=C(NCc1cccnc1)Nc1ccc(S(=O)(=O)c2cncc(F)c2)cc1 [3-[4-(5-fluoropyridine-3-sulfonyl)phenyl]-1-(pyridin-3-ylmethyl)urea] |
| 4.3 | 100 to 1000 | O=C(NCc1cccnc1)Nc1ccc(S(=O)(=O)c2cccc3c2OCO3)cc1 [1-[4-(2H-1,3-benzodioxole-4-sulfonyl)phenyl]-3-(pyridin-3-ylmethyl)urea] |
| 92 | 29000 | O=C(NCc1ccc(F)c(F)c1)Nc1ccc(S(=O)(=O)N2CCCCC2)cc1 [1-[(3,4-difluorophenyl)methyl]-3-[4-(piperidine-1-sulfonyl)phenyl]urea] |
